The values below come from article PMC10380488, “Cx43 Hemichannel and Panx1 Channel Modulation by Gap19 and ^10Panx1 Peptides” (International Journal of Molecular Sciences, 2023).

Assay [1] has as its target T1, Panx1 channels (Rattus norvegicus, UniProt P60570).
T1 construct: expressed in transfected cells; host or cells: C6 glioma cells (C6-Panx1), gift of Dr Christian C; Naus
Kind of assay: Whole-cell patch-clamp, unitary Panx1 channel current activity in C6-Panx1 cells. In kind it is cell-based. The note with it: for nominal open probability (NPo) of Panx1 channels: C6-Panx1, step −30 to +70 mV, 30 s, mean ± SEM, control 0.37 ± 0.02. An excerpt: (§1) We used HeLa cells stably transfected with Cx43 (HeLa-Cx43 [56]); endogenous expression of Panx1 is very low or absent in non-transfected HeLa cells. C6 glioma cells stably transfected with Panx1 (C6-Panx1, C-terminally myc-tagged; kind gift of Dr Christian C. Naus, University of British Columbia, Canada) were used for the Panx1 channel studies; Cx43 expression is low or undetectable [61] in these cells. HeLa cells were maintained in Dulbecco’s modified Eagle’s medium (DMEM; Invitrogen, Gent, Belgium), and C6 cells were grown in DMEM:Ham’s F12 (1:1—Invitrogen, Merelbeke, Belgium), all supplemented with 10% fetal bovine serum (FBS), 2 mM glutamine, 10 U/mL penicillin, 10 µg/mL streptomycin and 0.25 µg/mL fungizone. Stable exogenous expressions were maintained by supplementation of 1 and 3 µg/mL puromycin (Sigma-Aldrich, Bornem, Belgium) for HeLa-Cx43 and C6-Panx1 cells, respectively. Stable transfectants were subcultured into puromycin-free medium 2 days prior to experimentation. Cells were maintained at 37 °C and 10% (HeLa-Cx43) or 5% (C6-Panx1) CO2.
(§2) All experimental data were obtained with the patch-clamp technique in whole-cell recording mode on HeLa-Cx43 and C6-Panx1 cells. Extracellular solution was composed of the following (in mM): 150 NaCl, 4 CsCl, 2 CaCl2, 2 MgCl2, 2 pyruvic acid, 5 glucose and 5 HEPES at pH of 7.4, while the pipette solution consisted of the following (in mM): 125 CsCl, 10 sodium aspartate (NaAsp), 0.26 CaCl2, 1 MgCl2, 2 EGTA, 10 tetraethylammonium (TEA)-Cl and 5 HEPES at pH 7.2. The free Ca^2+ concentration of the pipette solution was estimated to be ~50 nM as calculated with WEBMAX (https://somapp.ucdmc.ucdavis.edu/pharmacology/bers/maxchelator/webmaxc/webmaxcS.htm; accessed on 20 September 2020). Whole-cell recording was performed under control conditions and in the presence of Gap19 or ^10Panx1. Gap19 was included in the pipette solution, while ^10Panx1 was added externally and preincubated for 45 min. Recordings were commenced 2 min after establishment of the whole-cell configuration. Currents were recorded with an EPC 7 PLUS patch-clamp amplifier (HEKA Elektronik, Germany). Unitary current activities were elicited by stepping the cells from a holding potential of −30 mV to a membrane potential (Vm) of +70 mV for 30 s. Data were digitized at 4 KHz using an NI USB-6221 data acquisition device (National Instruments, Austin, TX, USA) and WinWCP acquisition software designed by Dr. J. Dempster (University of Strathclyde, United Kingdom). Measured currents were filtered by a 7-pole Bessel low-pass filter at 1 KHz cut-off frequency. Transition analysis was performed as reported in [16]. Unitary channel conductances were determined from transition histograms as well as from all-point histograms and were obtained by fitting their frequencies to Gaussian distributions. Channel opening activity is expressed as nominal open probability NPo, denoting the number of active channels in the patch multiplied by the open probability.
(§3) Data were processed using Clampfit version 11.2 (Molecular Devices, San Jose, USA) and HemiGUI software as previously described. Results are expressed as mean ± SEM (unless otherwise stated), with n giving the number of traces, N the number of cells, and N the number of experiments on different cell culture dishes. Multiple groups were compared by one-way analysis of variance with post-hoc Dunnett’s or Bonferroni multiple comparison tests, making use of GraphPad PRISM 5.0 (GraphPad Software, Inc., La Jolla, CA). Results were considered statistically significant when p ≤ 0.05 (*; # for p ≤ 0.05, **; ## for p ≤ 0.01, ***; ### for p ≤ 0.001, and ****; #### for p ≤ 0.0001).
In general terms: The patch-clamp technique gives a direct electrical read-out from membranes.

Assay [2] relates to Cx43 HCs. The assay is described as follows: Whole-cell patch-clamp, unitary Cx43 hemichannel current activity in HeLa-Cx43 cells. The settings on record: for nominal open probability (NPo) of Cx43 HCs: HeLa-Cx43, step −30 to +70 mV, 30 s, mean ± SEM, control 0.48 ± 0.02; for conductance γ of Cx43 HC, subconductance state, transition histogram / unitary conductance γ of Cx43 HC, fully open state, transition histogram: Figure 3B, mean ± SD. Format: cell-based.
From the text: as §1, §2, §3

Assay [3] relates to Cx43 or Panx1 channels. The note with it: 100 μM extracellular; HeLa cells expressing Cx43 or Panx1; cited from earlier work. An excerpt:
(§4) Connexins and pannexins are two ubiquitous but distinct protein families forming membrane hemichannels (HCs) and channels in the plasma membrane, respectively. They facilitate the exchange of ions and small molecules (MW ≤ 1.5 kDa) between the intracellular and the extracellular compartment upon opening. Among these respective families, connexin-43 (Cx43) and pannexin-1 (Panx1) are the most abundant isotypes in the human body expressed in a wide array of tissues. Panx1 and Cx43 have several common properties, including the following: (i) an analogous tetra-spanning transmembrane topology with ...

In assay [4] the target is T1, Panx1 channels. The note with it: 200 µM extracellular; high extracellular K^+; cited from earlier work.
From the text: as §4

Assay [5] concerns Cx43 C-terminal tail. The note with it: cited from earlier work.
Assay [6] relates to Cx43 HCs. The note with it: cited from earlier work. An excerpt:
However, this concentration decreases the NPo of Cx43 HCs by ~83% (Figure 2B; for traces, see Figure 3).

The mark [7] stands for this setting: 100 μM Gap19 intracellular, N = 12, n = 98.
Where [8] appears, read: 200 μM Gap19 intracellular, N = 15, n = 122.

Where “and” joins values, the source holds several entries; their conditions need not be identical. Identical values can stand only once. Entries after “also recorded” stand apart in the source; their conditions may differ.

T1 sequence (P60570 whole entry): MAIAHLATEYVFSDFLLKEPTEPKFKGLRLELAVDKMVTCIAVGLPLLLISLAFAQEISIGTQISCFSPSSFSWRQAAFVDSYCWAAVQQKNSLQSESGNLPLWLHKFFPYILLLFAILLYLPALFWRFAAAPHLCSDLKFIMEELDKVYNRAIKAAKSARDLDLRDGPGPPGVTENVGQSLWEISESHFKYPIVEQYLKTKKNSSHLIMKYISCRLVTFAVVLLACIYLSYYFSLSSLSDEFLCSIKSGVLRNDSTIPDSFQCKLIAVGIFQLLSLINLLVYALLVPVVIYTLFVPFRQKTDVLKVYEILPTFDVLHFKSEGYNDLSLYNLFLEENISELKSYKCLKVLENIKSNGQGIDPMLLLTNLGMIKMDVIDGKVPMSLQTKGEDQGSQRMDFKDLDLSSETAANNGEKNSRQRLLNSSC

Turning to KQIEIKKFK [Gap19], the “effect on Panx1 channels” value in assay [1] (100 μM Gap19 intracellular) is given as “without affecting the Panx1 channels”. The “nominal open probability (NPo) of Panx1 channels” value in assay [1] (100 μM Gap19 intracellular (pipette), N = 12 cells, n = 76 traces) is listed as 0.34 ± 0.03; in assay [1] (200 μM Gap19 intracellular (pipette), N = 9 cells, n = 70 traces), 0.30 ± 0.03; in assay [1] (500 μM Gap19 intracellular (pipette), N = 10 cells, n = 87 traces), 0.28 ± 0.03. Further, in assay [1] (200 µM Gap19 intracellular, Figure 1C), the “effect on open-state events of Panx1, all-point histograms” value was “some effect; also recorded: to some extent”. Further, in assay [1] (500 μM Gap19 intracellular, vs control, significant), the “reduction of NPo of Panx1 channels” value was ~ 25% and 26%. Further, in assay [1] (100 and 200 μM Gap19 intracellular (below 500 μM)), the “effect on Panx1 channel activity (NPo)” value is “did not significantly affect the NPo of the Panx1 channel; also recorded: non-significant effects on Panx1 channel activity; also recorded: without affecting Panx1 channel function; also recorded: No Effect below 500 µM”. The “fast-flickering closures of Panx1 channel” value in assay [1] (traces of Panx1 channel activity (Supplementary Figure S2)) is given as “not observed”. The “reduction of NPo of Cx43 HCs” value in assay [2] (100 μM Gap19 intracellular) is recorded as “significantly reduces the NPo of Cx43 HCs; also recorded: more than halved the NPo”; in assay [2] (500 μM Gap19 intracellular, vs control), 84%. Also, the “nominal open probability (NPo) of Cx43 HCs” value in assay [2] (100 μM Gap19 intracellular (pipette), N = 12 cells, n = 98 traces) is 0.21 ± 0.02; in assay [2] (200 μM Gap19 intracellular (pipette), N = 15 cells, n = 122 traces) it was 0.18 ± 0.02; in assay [2] (500 μM Gap19 intracellular (pipette), N = 12 cells, n = 88 traces), 0.08 ± 0.01. For the same sequence, the “conductance γ of Cx43 HC, subconductance state, transition histogram” value is 86 ± 31 pS in assay [2] (setting [7]) and 87 ± 27 pS in assay [2] (setting [8]). In addition, the “unitary conductance γ of Cx43 HC, fully open state, transition histogram” value in assay [2] (setting [7]) stood at 201 ± 50 pS; in assay [2] (setting [8]), 201 ± 45 pS. The “conductance γ of Cx43 HC, all-point histogram” value in assay [2] (Figure 3C, 100 μM Gap19 intracellular) was 204 ± 46 pS. The “inhibition of Cx43 HC opening activity (in words)” value in assay [2] (Gap19 intracellular / ^10Panx1 extracellular, 100-500 μM (Gap19 100–200 μM)) was “Inhibited; also recorded: concentration-dependent and significant inhibition; also recorded: concentration-dependently inhibits Cx43 HCs; also recorded: significantly inhibits Cx43 HCs”. Besides, the “effect on Cx43 HC gating (fully open state vs subconductance state)” value in assay [2] (Gap19 intracellular / ^10Panx1 extracellular, from 100 µM) was “reduced the frequency of transitions to the fully open state and increased the propensity of subconductance transitions starting from 100 µM; also recorded: increased gating to the subconductance state; also recorded: acts as a gating modifier, reducing transitions to the fully open state (~210 pS) while increasing the number of transitions to the subconductance state (~80 pS”. The “selectivity for Cx43 or Panx1 channels” value in assay [3] was “good selectivity”. Moreover, in assay [4], the “effect on ATP release from Panx1-overexpressing cells” value is on record as “does not affect ATP release”. In addition, in assay [5], the “interaction with the Cx43 C-terminal tail” value was “interacts with the Cx43 C-terminal tail”. Further, the “effect on Cx43 HC gating” value in assay [6] is reported as “gating modifier”.
